Data: the supplement of paper PMC10307832

Columns and labels:
Assay in all cases: relative viability (nuclei count vs DMSO), 5 days (fraction); higher = more cells survive
Sorafenib + Bortezomib = compound: CNC(=O)c1cc(Oc2ccc(NC(=O)Nc3ccc(Cl)c(C(F)(F)F)c3)cc2)ccn1 [Sorafenib] + CC(C)C[C@H](NC(=O)[C@H](Cc1ccccc1)NC(=O)c1cnccn1)B(O)O [Bortezomib] (partner 0.002 µM)
Method in brief: (§1)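 A single step with final 0.05% Triton X-100, 1% formaldehyde and 1 ug/ml Hoechst fixed the cells and stained nuclei 5 days after treatment. Lung cancer cell lines in 1536-well plates had been treated by pin tool the day after seeding with one drug alone or a fixed anchor-drug dose plus five library-drug doses (not always all listed) in √10 steps, and nuclei were counted on 4× images. Relative viability is the ratio of nuclei in treated wells to nuclei in vehicle wells, taken as the median of duplicate plates.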

Sorafenib + Navitoclax = compound: CNC(=O)c1cc(Oc2ccc(NC(=O)Nc3ccc(Cl)c(C(F)(F)F)c3)cc2)ccn1 [Sorafenib] + CC1(C)CCC(c2ccc(Cl)cc2)=C(CN2CCN(c3ccc(C(=O)NS(=O)(=O)c4ccc(N[C@H](CCN5CCOCC5)CSc5ccccc5)c(S(=O)(=O)C(F)(F)F)c4)cc3)CC2)C1 [Navitoclax] (partner 0.5 µM)
Method in brief: as §1

Sorafenib + Pictilisib = compound: CNC(=O)c1cc(Oc2ccc(NC(=O)Nc3ccc(Cl)c(C(F)(F)F)c3)cc2)ccn1 [Sorafenib] + CS(=O)(=O)N1CCN(Cc2cc3nc(-c4cccc5[nH]ncc45)nc(N4CCOCC4)c3s2)CC1 [Pictilisib] (partner 1 µM)
Method in brief: as §1

Sorafenib + Crizotinib = compound: CNC(=O)c1cc(Oc2ccc(NC(=O)Nc3ccc(Cl)c(C(F)(F)F)c3)cc2)ccn1 [Sorafenib] + C[C@@H](Oc1cc(-c2cnn(C3CCNCC3)c2)cnc1N)c1c(Cl)ccc(F)c1Cl [Crizotinib] (partner 1 µM)
Method in brief: as §1

Sorafenib + Decitabine = compound: CNC(=O)c1cc(Oc2ccc(NC(=O)Nc3ccc(Cl)c(C(F)(F)F)c3)cc2)ccn1 [Sorafenib] + Nc1ncn([C@H]2C[C@H](O)[C@@H](CO)O2)c(=O)n1 [Decitabine] (partner 2 µM)
Method in brief: as §1

| Cell Line | relative viability (Sorafenib + Bortezomib; first compound 0.08 µM) | relative viability (Sorafenib + Bortezomib; first compound 0.253 µM) | relative viability (Sorafenib + Bortezomib; first compound 2.53 µM) | relative viability (Sorafenib + Bortezomib; first compound 8 µM) | relative viability (Sorafenib + Navitoclax; first compound 0.08 µM) | relative viability (Sorafenib + Navitoclax; first compound 0.253 µM) | relative viability (Sorafenib + Navitoclax; first compound 2.53 µM) | relative viability (Sorafenib + Navitoclax; first compound 8 µM) | relative viability (Sorafenib + Pictilisib; first compound 0.08 µM) | relative viability (Sorafenib + Pictilisib; first compound 0.253 µM) | relative viability (Sorafenib + Pictilisib; first compound 2.53 µM) | relative viability (Sorafenib + Pictilisib; first compound 8 µM) | relative viability (Sorafenib + Crizotinib; first compound 0.08 µM) | relative viability (Sorafenib + Crizotinib; first compound 0.253 µM) | relative viability (Sorafenib + Crizotinib; first compound 2.53 µM) | relative viability (Sorafenib + Crizotinib; first compound 8 µM) | relative viability (Sorafenib + Decitabine; first compound 0.08 µM) | relative viability (Sorafenib + Decitabine; first compound 0.253 µM) | relative viability (Sorafenib + Decitabine; first compound 2.53 µM) | relative viability (Sorafenib + Decitabine; first compound 8 µM) |
| --- | --- | --- | --- | --- | --- | --- | --- | --- | --- | --- | --- | --- | --- | --- | --- | --- | --- | --- | --- | --- |
| 201T | 1.1 | 1.07 | 1.19 | 1.18 | 1.19 | 1.24 | 1.27 | 1.18 | 0.684 | 0.669 | 0.72 | 0.65 | 1.03 | 1.01 | 1.13 | 1.08 | 0.854 | 0.816 | 0.867 | 0.879 |
| NCI-H596 | 1.02 | – | 1.19 | 1.14 | 0.892 | 1.13 | 1.02 | 1.02 | 0.354 | 0.436 | 0.374 | 0.372 | 0.963 | 0.982 | 1.06 | 0.957 | 0.987 | 1.01 | 1.16 | 1.05 |
| HCC-44 | 0.814 | 0.805 | 0.865 | 0.699 | – | 0.92 | 1.03 | 0.909 | 0.628 | 0.693 | 0.673 | 0.549 | 0.811 | 0.735 | 0.725 | 0.565 | – | 0.862 | 0.886 | 0.866 |
| NCI-H2126 | 1.14 | 1.17 | 1.09 | 1.16 | 0.892 | 0.782 | 0.888 | 0.867 | 0.498 | 0.505 | 0.618 | 0.54 | 0.998 | 0.984 | 1.09 | 0.962 | 0.631 | 0.524 | 0.562 | 0.643 |
| NCI-H322M | 1.3 | 1.18 | – | 1.55 | 1.19 | 1.25 | 1.34 | 1.16 | – | 0.593 | 0.62 | 0.695 | 0.945 | 0.848 | 0.894 | 0.859 | 0.69 | 0.788 | 0.823 | 0.739 |
| LCLC-97TM1 | 0.725 | 0.623 | 0.992 | 0.73 | 0.356 | 0.373 | 0.323 | 0.313 | 0.152 | 0.207 | 0.211 | 0.16 | 0.326 | 0.358 | 0.364 | 0.121 | 0.235 | 0.224 | 0.165 | 0.252 |
| NCI-H1993 | 1.6 | 0.994 | 1.24 | 1.07 | 1.07 | 0.973 | 0.914 | 0.753 | 0.833 | 0.788 | 0.707 | 0.677 | 0.988 | 1 | 1.08 | 0.851 | – | 0.478 | 0.665 | 0.489 |
| NCI-H1651 | 0.995 | 0.855 | 0.92 | 0.801 | 1.04 | 0.985 | 1.04 | 0.472 | 0.688 | 0.517 | 0.555 | 0.445 | 0.863 | 0.866 | 0.845 | 0.877 | 0.658 | 0.564 | 0.577 | 0.501 |
| NCI-H727 | 0.775 | 0.618 | 0.699 | 0.516 | 0.604 | 0.632 | 0.675 | 0.369 | 0.332 | 0.337 | 0.257 | 0.311 | 0.979 | 0.797 | 0.706 | 0.357 | 0.988 | 0.947 | 0.805 | 0.781 |
| NCI-H2347 | 1.13 | 0.997 | 1.02 | 0.868 | 0.932 | 0.676 | 0.84 | 0.815 | 0.956 | 0.479 | 0.641 | 0.493 | 0.796 | 0.559 | 0.491 | 0.525 | 0.592 | 0.628 | 0.675 | 0.594 |
| LU99A | 1.21 | 1.12 | 1.06 | 0.714 | 0.811 | 0.669 | 0.72 | 0.579 | 0.308 | 0.3 | 0.347 | 0.325 | 0.541 | 0.547 | 0.6 | 0.543 | 0.86 | 0.91 | – | 0.606 |
| NCI-H1975 | 0.404 | 0.375 | 0.445 | 0.201 | 1.01 | 1.1 | 1.18 | 0.853 | 0.312 | 0.308 | 0.376 | 0.286 | 0.988 | 1.03 | 0.985 | 0.466 | 0.431 | 0.383 | 0.365 | 0.353 |
| NCI-H1734 | 1.01 | 1.14 | 0.885 | 0.346 | 0.858 | 0.721 | 0.721 | 0.492 | 0.465 | 0.469 | 0.471 | 0.248 | 0.746 | 0.625 | 0.66 | 0.426 | 0.479 | 0.445 | 0.484 | 0.431 |
| NCI-H647 | 1.17 | 0.829 | 0.745 | 0.39 | 1.2 | 1.09 | 0.97 | 0.538 | 0.544 | – | 0.475 | 0.374 | 1.05 | 0.972 | 0.867 | 0.395 | 0.4 | 0.316 | 0.355 | 0.184 |
| NCI-H23 | 0.97 | 0.89 | 0.804 | 0.861 | 0.996 | 0.768 | 0.806 | 0.705 | 0.474 | 0.445 | 0.39 | 0.362 | 0.566 | 0.427 | 0.689 | 0.427 | 0.269 | 0.292 | 0.302 | 0.26 |
| RERF-LC-KJ | 1.12 | 0.992 | 1.17 | 0.992 | 0.932 | 1.11 | 0.867 | 0.705 | 0.604 | 0.578 | 0.612 | 0.438 | 0.885 | 0.798 | 0.856 | 0.768 | 0.74 | 0.673 | 0.586 | 0.473 |
